Source: ChEMBL document CHEMBL5233247, “Recent advances in DNA gyrase-targeted antimicrobial agents” (Eur J Med Chem, 2020)
Values after ≈ are worked out from the molar mass of the structure shown.

Experiments:
DNA gyrase [1] = molecular target: T1, DNA gyrase (Staphylococcus aureus, UniProt P0A0K8+P20831); assay: Inhibition of Staphylococcus aureus DNA gyrase assessed as relaxation of pBR322 DNA by supercoiling assay; assay type: protein-complex assay
[2] = molecular target: DNA gyrase subunit A/DNA gyrase subunit B (Mycobacterium tuberculosis (strain ATCC 25618 / H37Rv), UniProt P9WG45+P9WG47); assay: Inhibition of Mycobacterium tuberculosis (MTB) DNA gyrase using pBR322 DNA by supercoiling assay; assay type: protein-complex assay
[3] = tested on: Mycobacterium tuberculosis; assay: Antimycobacterial activity against Mycobacterium tuberculosis incubated for 7 days by MABA assay; assay type: functional; conditions: 168 h, time 7 day
DNA gyrase [4] = molecular target: DNA gyrase (Escherichia coli, UniProt P0AES4+P0AES6); assay: Inhibition of Escherichia coli DNA gyrase; assay type: protein-complex assay
Bacillus subtilis [5] = assay: Antibacterial activity against Bacillus subtilis DSM 10 by microdilution assay; assay type: functional
Mycolicibacterium phlei = assay: Antibacterial activity against Mycobacterium phlei DSM 750 by microdilution assay; assay type: functional
DNA gyrase [6] = molecular target: T1, DNA gyrase; assay: Inhibition of Staphylococcus aureus DNA gyrase; assay type: protein-complex assay
[7] = tested on: Mycobacterium tuberculosis; assay: Anti-tubercular activity against Mycobacterium tuberculosis H37Rv strain; assay type: functional
Staphylococcus aureus [8] = assay: Antibacterial activity against Staphylococcus aureus; assay type: functional
Bacillus cereus = assay: Antibacterial activity against Bacillus cereus; assay type: functional
Escherichia coli [9] = assay: Antibacterial activity against Escherichia coli; assay type: functional
Klebsiella pneumoniae = assay: Antibacterial activity against Klebsiella pneumoniae; assay type: functional
Pseudomonas aeruginosa = assay: Antibacterial activity against Pseudomonas aeruginosa; assay type: functional
[10] = tested on: Mycolicibacterium smegmatis; assay: Antibacterial activity against Mycobacterium smegmatis; assay type: functional
Staphylococcus aureus [11] = assay: Antimicrobial activity against Staphylococcus aureus assessed as inhibition of visible growth incubated for 24 hrs by agar-dilution method; assay type: functional
Listeria monocytogenes = assay: Antimicrobial activity against Listeria monocytogenes assessed as inhibition of visible growth incubated for 24 hrs by agar-dilution method; assay type: functional
Escherichia coli [12] = assay: Antimicrobial activity against Escherichia coli assessed as inhibition of visible growth incubated for 24 hrs by agar-dilution method; assay type: functional
[13] = tested on: Salmonella enterica subsp. enterica serovar Gallinarum; assay: Antimicrobial activity against Salmonella gallinarum assessed as inhibition of visible growth incubated for 24 hrs by agar-dilution method; assay type: functional
Staphylococcus aureus [14] = assay: Antimicrobial activity against Staphylococcus aureus MSCL 334 assessed as inhibition of bacterial growth incubated for 24 hrs by standardized broth dilution method; assay type: functional
Bacillus subtilis [15] = assay: Antimicrobial activity against Bacillus subtilis assessed as inhibition of bacterial growth incubated for 24 hrs by standardized broth dilution method; assay type: functional
Escherichia coli [16] = assay: Antimicrobial activity against Escherichia coli MSCL 332 assessed as inhibition of bacterial growth incubated for 24 hrs by standardized broth dilution method; assay type: functional
Bacillus subtilis [17] = assay: Antibacterial activity against Bacillus subtilis; assay type: functional
Enterococcus faecalis [18] = assay: Antimicrobial activity against Enterococcus faecalis; assay type: functional
[19] = Inhibition of Salmonella typhimurium DNA gyrase; design: species or system Salmonella enterica subsp. enterica serovar Typhimurium
Salmonella typhimurium = assay: Antibacterial activity against Salmonella typhimurium assessed as inhibition was bacterial growth by broth micro dilution method; assay type: functional, Salmonella enterica subsp. enterica serovar Typhimurium; conditions: Salmonella enterica
Salmonella enterica = assay: Antibacterial activity against Salmonella enterica assessed as inhibition was bacterial growth by broth micro dilution method; assay type: functional
Staphylococcus aureus [20] = assay: Antibacterial activity against methicillin-sensitive Staphylococcus aureus; assay type: functional, organism-based
Staphylococcus aureus [21] = assay: Antibacterial activity against healthcare-acquired methicillin-resistant Staphylococcus aureus; assay type: functional
Staphylococcus aureus [22] = assay: Antibacterial activity against community-acquired methicillin-resistant Staphylococcus aureus; assay type: functional
Enterococcus faecalis [23] = assay: Antibacterial activity against Enterococcus faecalis; assay type: functional
Streptococcus pneumoniae = assay: Antibacterial activity against Streptococcus pneumoniae; assay type: functional
Acinetobacter baumannii = assay: Antibacterial activity against Acinetobacter baumannii; assay type: functional

Sequence of DNA gyrase subunit A/DNA gyrase subunit B (P9WG45 whole entry): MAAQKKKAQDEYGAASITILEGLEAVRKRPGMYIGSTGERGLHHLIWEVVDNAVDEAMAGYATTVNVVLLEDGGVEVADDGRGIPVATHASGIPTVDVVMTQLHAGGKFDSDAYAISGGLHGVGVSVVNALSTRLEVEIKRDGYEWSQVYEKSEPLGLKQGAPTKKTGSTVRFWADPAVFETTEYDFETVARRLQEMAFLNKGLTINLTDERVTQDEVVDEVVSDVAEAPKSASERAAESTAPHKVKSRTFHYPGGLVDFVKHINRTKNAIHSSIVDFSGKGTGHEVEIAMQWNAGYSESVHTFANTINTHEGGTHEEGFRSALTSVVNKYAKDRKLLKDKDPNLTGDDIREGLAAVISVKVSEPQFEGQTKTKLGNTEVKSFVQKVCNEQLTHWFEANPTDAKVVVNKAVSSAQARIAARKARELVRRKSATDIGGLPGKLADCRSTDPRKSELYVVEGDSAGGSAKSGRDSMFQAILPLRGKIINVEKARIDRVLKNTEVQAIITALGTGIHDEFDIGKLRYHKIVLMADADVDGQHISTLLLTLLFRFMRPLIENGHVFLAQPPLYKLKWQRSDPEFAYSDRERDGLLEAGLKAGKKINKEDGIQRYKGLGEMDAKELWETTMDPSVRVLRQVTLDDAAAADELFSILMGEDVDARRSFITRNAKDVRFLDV
Sequence of DNA gyrase subunit A/DNA gyrase subunit B (P9WG47 whole entry): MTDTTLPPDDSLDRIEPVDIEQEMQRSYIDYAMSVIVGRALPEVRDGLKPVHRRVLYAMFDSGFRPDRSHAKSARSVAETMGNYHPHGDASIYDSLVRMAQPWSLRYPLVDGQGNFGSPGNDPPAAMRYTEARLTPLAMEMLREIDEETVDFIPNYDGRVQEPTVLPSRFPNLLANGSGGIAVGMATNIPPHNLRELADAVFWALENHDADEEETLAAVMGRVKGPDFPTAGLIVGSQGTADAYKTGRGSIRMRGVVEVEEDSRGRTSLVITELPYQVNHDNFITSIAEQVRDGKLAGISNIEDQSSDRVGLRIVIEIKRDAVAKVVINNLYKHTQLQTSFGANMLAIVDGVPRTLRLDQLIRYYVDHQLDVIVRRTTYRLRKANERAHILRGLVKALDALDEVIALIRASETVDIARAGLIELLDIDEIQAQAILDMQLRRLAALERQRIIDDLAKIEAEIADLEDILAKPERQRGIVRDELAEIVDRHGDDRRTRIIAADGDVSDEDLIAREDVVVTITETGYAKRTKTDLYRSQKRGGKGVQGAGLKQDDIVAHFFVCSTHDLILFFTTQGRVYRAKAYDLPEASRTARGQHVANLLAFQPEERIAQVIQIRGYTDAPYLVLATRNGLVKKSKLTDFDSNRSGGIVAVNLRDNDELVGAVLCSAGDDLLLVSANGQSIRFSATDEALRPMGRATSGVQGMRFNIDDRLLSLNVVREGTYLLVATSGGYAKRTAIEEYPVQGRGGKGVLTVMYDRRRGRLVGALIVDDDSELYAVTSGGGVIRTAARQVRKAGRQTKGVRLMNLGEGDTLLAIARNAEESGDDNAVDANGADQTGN
T1 sequence (P0A0K8 whole entry): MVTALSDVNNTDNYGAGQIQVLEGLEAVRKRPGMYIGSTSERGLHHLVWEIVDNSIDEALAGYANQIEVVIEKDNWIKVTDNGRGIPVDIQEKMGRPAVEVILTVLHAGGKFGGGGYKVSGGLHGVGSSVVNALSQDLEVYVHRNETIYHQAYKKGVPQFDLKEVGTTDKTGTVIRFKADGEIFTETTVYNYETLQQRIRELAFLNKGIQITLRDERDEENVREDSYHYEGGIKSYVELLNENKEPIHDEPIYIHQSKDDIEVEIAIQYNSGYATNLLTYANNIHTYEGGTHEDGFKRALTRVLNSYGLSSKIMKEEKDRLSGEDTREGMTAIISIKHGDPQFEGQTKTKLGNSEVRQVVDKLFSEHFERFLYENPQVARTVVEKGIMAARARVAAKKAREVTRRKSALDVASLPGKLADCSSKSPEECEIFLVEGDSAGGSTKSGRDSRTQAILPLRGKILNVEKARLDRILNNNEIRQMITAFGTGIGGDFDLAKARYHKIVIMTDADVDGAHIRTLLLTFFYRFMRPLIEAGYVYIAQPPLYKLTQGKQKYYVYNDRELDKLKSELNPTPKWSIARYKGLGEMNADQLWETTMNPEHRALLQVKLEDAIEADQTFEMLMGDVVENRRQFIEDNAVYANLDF
T1 sequence (P20831 whole entry): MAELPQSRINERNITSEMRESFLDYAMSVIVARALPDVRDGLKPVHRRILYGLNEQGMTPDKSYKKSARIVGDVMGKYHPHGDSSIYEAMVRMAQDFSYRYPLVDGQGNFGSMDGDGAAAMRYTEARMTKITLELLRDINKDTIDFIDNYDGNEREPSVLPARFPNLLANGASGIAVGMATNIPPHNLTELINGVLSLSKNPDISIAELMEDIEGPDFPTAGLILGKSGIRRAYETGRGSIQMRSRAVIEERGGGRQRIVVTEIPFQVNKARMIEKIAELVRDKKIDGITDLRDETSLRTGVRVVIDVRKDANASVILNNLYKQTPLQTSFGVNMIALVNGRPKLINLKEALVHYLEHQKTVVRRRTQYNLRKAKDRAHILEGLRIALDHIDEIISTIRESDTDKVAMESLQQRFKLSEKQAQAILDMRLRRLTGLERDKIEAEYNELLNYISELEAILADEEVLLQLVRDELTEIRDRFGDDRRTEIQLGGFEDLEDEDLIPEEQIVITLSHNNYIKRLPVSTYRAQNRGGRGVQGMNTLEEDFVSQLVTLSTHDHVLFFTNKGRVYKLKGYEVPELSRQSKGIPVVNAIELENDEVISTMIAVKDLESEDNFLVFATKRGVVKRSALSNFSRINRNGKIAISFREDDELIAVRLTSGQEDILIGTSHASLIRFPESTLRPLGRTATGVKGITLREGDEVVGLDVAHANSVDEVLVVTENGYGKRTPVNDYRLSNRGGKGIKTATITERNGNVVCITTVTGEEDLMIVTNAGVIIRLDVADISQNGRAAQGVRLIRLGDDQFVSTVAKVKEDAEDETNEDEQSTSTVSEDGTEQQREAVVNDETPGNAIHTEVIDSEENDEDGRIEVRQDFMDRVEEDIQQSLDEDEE

Structure (SMILES): COc1cc2c(cc1OCCCC(=O)Nc1cc(C(=O)Nc3ccc4sccc4c3)n(C)c1)N=C[C@@H]1CCCN1C2=O
- IC50 (DNA gyrase [1]): 3890 nM

Structure (SMILES): Cc1ccc(NC(=S)N2CCN(c3nc(=O)c4cc([N+](=O)[O-])ccc4s3)CC2)cc1
- IC50 [2]: 770 nM
- MIC [3]: 1.82 µM (≈ 0.804 µg/mL)

Structure (SMILES): COc1ccc2c3conc3c(=O)n(CCN3CCC(NCc4ccc5c(n4)NC(=O)CO5)CC3)c2c1
- IC50 (DNA gyrase [4]): 416 nM

Structure (SMILES): COc1c(NC(=O)c2ccc(NC(=O)[C@@H](NC(=O)c3ccc(NC(=O)/C(C)=C/c4ccc(O)cc4)cc3)C(C)O)c(OC)c2O)ccc(C(=O)O)c1O (stereo partly drawn)
- MIC (Bacillus subtilis [5]): 0.5 µM (≈ 0.364 µg/mL)
- MIC (Mycolicibacterium phlei): 2 µM (≈ 1.46 µg/mL)

Structure (SMILES): COC(=O)CNC(=O)c1ccc(NC(=O)c2cc(Cl)c(Cl)[nH]2)c(OCC(C)C)c1
- IC50 (DNA gyrase [4]): 2300 nM

Structure (SMILES): O=C(O)CCC(=O)Nc1ccc(NC(=O)c2ccco2)cc1
- IC50 (DNA gyrase [6]): 12900 nM

Structure (SMILES): COc1cc(/C=N/Nc2nc(-c3ccc(Br)cc3)cs2)ccc1Oc1ccnc2cc(Cl)ccc12
- MIC [7]: 3.12 µM (≈ 1.77 µg/mL)

Structure (SMILES): O=C1COc2ccc(CNC3CCN(CCn4c(=O)c5nocc5c5ccc(F)cc54)CC3)nc2N1
- IC50 (DNA gyrase [4]): 426 nM

Structure (SMILES): COc1cc(/C=N/Nc2nc(-c3ccc(Cl)cc3)cs2)ccc1Oc1ccnc2cc(Cl)ccc12
- MIC [7]: 3.12 µM (≈ 1.63 µg/mL)

Structure (SMILES): CCn1cc(-c2nnc(Nc3ccc(C)cc3)o2)c(=O)c2cc(Br)c(C)nc21
- MIC (Staphylococcus aureus [8]): 5.5 µg/mL (≈ 12.5 µM)
- MIC (Bacillus cereus): 5.5 µg/mL (≈ 12.5 µM)
- MIC (Escherichia coli [9]): 5.5 µg/mL (≈ 12.5 µM)
- MIC (Klebsiella pneumoniae): 5.5 µg/mL (≈ 12.5 µM)
- MIC (Pseudomonas aeruginosa): 5.5 µg/mL (≈ 12.5 µM)
- MIC [10]: 5.5 µg/mL (≈ 12.5 µM)

Structure (SMILES): O=C(O)c1ccc(CNC(=O)[C@H](Cc2ccc(O)cc2)NC(=O)c2cc(Br)c(Br)[nH]2)cc1
- IC50 (DNA gyrase [4]): 619 nM

Structure (SMILES): Cc1ccc(-n2nc(C)c(C(=O)Oc3ncn(-c4ccccc4)n3)c2Cl)cc1
- MIC (Staphylococcus aureus [11]): 0.5 µg/mL (≈ 1.27 µM)
- MIC (Listeria monocytogenes): 0.5 µg/mL (≈ 1.27 µM)
- MIC (Escherichia coli [12]): 0.5 µg/mL (≈ 1.27 µM)
- MIC [13]: 0.5 µg/mL (≈ 1.27 µM)

Structure (SMILES): CCCCCCCOCC[N+]1(C)CCc2ccccc2C1.[I-] (stereo not drawn)
- MIC (Staphylococcus aureus [14]): 8 µg/mL
- MIC (Bacillus subtilis [15]): 128 µg/mL
- MIC (Escherichia coli [16]): 128 µg/mL

Structure (SMILES): COc1cc(C(=O)NCC(=O)O)ccc1NC(=O)c1cc(Cl)c(Cl)[nH]1
- IC50 (DNA gyrase [4]): 120 nM

Structure (SMILES): O=c1nc(N2CCN(C(=S)Nc3ccccc3)CC2)sc2ccc([N+](=O)[O-])cc12
- IC50 [2]: 510 nM
- MIC [3]: 4.41 µM (≈ 1.89 µg/mL)

Structure (SMILES): O=C1COc2ccc(CNC3CCN(CCn4c(=O)c5nocc5c5ncccc54)CC3)nc2N1
- IC50 (DNA gyrase [4]): 442 nM

Structure (SMILES): CCn1cc(-c2nnc(Nc3ccc(OC)cc3)o2)c(=O)c2cc(Br)c(C)nc21
- IC50 (DNA gyrase [4]): 8530 nM
- MIC (Staphylococcus aureus [8]): 5.7 µg/mL (≈ 12.5 µM)
- MIC (Bacillus cereus): 5.7 µg/mL (≈ 12.5 µM)
- MIC (Escherichia coli [9]): 5.7 µg/mL (≈ 12.5 µM)
- MIC (Klebsiella pneumoniae): 5.7 µg/mL (≈ 12.5 µM)
- MIC (Pseudomonas aeruginosa): 5.7 µg/mL (≈ 12.5 µM)
- MIC [10]: 5.7 µg/mL (≈ 12.5 µM)

Structure (SMILES): O=C(O)C(=O)Nc1nc2ccc(NC(=O)c3cc(Br)c(Br)[nH]3)cc2s1
- IC50 (DNA gyrase [4]): 58 nM

Structure (SMILES): O=C1COc2ccc(CNC3CCN(CCn4c(=O)c5ncoc5c5ccc(F)cc54)CC3)nc2N1
- IC50 (DNA gyrase [4]): 426 nM

Structure (SMILES): CCCCCCCOCC[N+]1(C)CCCc2ccccc21.[I-] (stereo not drawn)
- MIC (Staphylococcus aureus [14]): 1 µg/mL
- MIC (Bacillus subtilis [15]): 2 µg/mL
- MIC (Escherichia coli [16]): 128 µg/mL

Structure (SMILES): CCn1cc(-c2nc(NC(=O)c3ccccc3)n[nH]2)c(=O)c2ccc(C)nc21
- IC50 (DNA gyrase [4]): 10400 nM
- MIC (Bacillus subtilis [17]): 3.68 µM (≈ 1.38 µg/mL)

Structure (SMILES): CC(C)COc1cc(C(=O)NCC(=O)O)ccc1NC(=O)c1cc(Cl)c(Cl)[nH]1
- IC50 (DNA gyrase [4]): 47000 nM
- MIC (Enterococcus faecalis [18]): 12.5 µM (≈ 5.35 µg/mL)

Structure (SMILES): CCNC(=O)Nc1nc2ccc(NC(=O)Cc3csc(NC(=O)OC(C)(C)C)n3)cc2s1
- IC50 (DNA gyrase [4]): 3900 nM

Structure (SMILES): O=C(O)c1cn(C2CC2)c2cc(N3CCNCC3)c(F)cc2c1=O [CIPROFLOXACIN]
- IC50 [19]: 0.25 µg/mL (≈ 0.754 µM)
- MIC (Salmonella typhimurium): 0.016 µg/mL (≈ 0.0483 µM)
- MIC (Salmonella enterica): 0.016 µg/mL (≈ 0.0483 µM)
- MIC [7]: 12.5 µM (≈ 4.14 µg/mL)
- MIC (Staphylococcus aureus [20]): 0.098 µg/mL (≈ 0.296 µM)
- MIC (Staphylococcus aureus [21]): 0.2 µg/mL (≈ 0.604 µM)
- MIC (Staphylococcus aureus [22]): 6.3 µg/mL (≈ 19 µM)
- MIC (Enterococcus faecalis [23]): 0.79 µg/mL (≈ 2.38 µM)
- MIC (Streptococcus pneumoniae): 0.39 µg/mL (≈ 1.18 µM)
- MIC (Acinetobacter baumannii): 0.78 µg/mL (≈ 2.35 µM)
- MIC (Listeria monocytogenes): 0.125 µg/mL (≈ 0.377 µM)
- MIC [13]: 0.125 µg/mL (≈ 0.377 µM)
